# According to PubChem BioAssay AID248 (DTP/NCI, 2004):
# Several values for one entry are separate records, joined by “and”; a condition that tells them apart may be missing. Equal entries are not always repeated. Inconclusive results and toxic doses are left out.
# System: L1210 leukemia ip in BDF1 mice, survival T/C
# Assay: NCI In Vivo Anticancer Drug Screen. Data for tumor model L1210 Leukemia (intraperitoneal) in B6D2F1 (BDF1) mice
# Settings: higher = longer survival
# Procedure, shortened: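 Survival endpoint. Drug-treated group vs vehicle group, expressed as T divided by C. Tumor passaged by transplantation.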
compound,measurement,setting,value
Nc1nc(=O)n(C2OC(CO)C(O)C2O)cc1F (stereo not drawn),T/C,"endpoint: mean survival time, dose: 0.02 mg/kg/injection, schedule: Q#A X020 (ip), vehicle: saline",104 % of control
same,T/C,"endpoint: mean survival time, dose: 0.04 mg/kg/injection, schedule: Q#A X020 (ip), vehicle: saline",109 % of control
same,T/C,"endpoint: mean survival time, dose: 0.05 mg/kg/injection, schedule: Q01DX010 (ip), vehicle: saline",98 % of control
same,T/C,"endpoint: mean survival time, dose: 0.09 mg/kg/injection, schedule: Q01DX010 (ip), vehicle: saline",102 % of control
same,T/C,"endpoint: mean survival time, dose: 0.09 mg/kg/injection, schedule: Q#A X020 (ip), vehicle: saline",118 % of control
same,T/C,"endpoint: mean survival time, dose: 0.16 mg/kg/injection, schedule: Q03DX003 (ip), vehicle: saline",108 % of control
same,T/C,"endpoint: mean survival time, dose: 0.19 mg/kg/injection, schedule: Q01DX010 (ip), vehicle: saline",118 % of control
same,T/C,"endpoint: mean survival time, dose: 0.31 mg/kg/injection, schedule: Q03DX003 (ip), vehicle: saline",108 % of control
same,T/C,"endpoint: mean survival time, dose: 0.37 mg/kg/injection, schedule: Q#A X020 (ip), vehicle: saline",169 % of control
same,T/C,"endpoint: mean survival time, dose: 0.38 mg/kg/injection, schedule: Q01DX010 (im), vehicle: saline",114 % of control
same,T/C,"endpoint: mean survival time, dose: 0.38 mg/kg/injection, schedule: Q01DX010 (ip), vehicle: saline",110 % of control
same,T/C,"endpoint: mean survival time, dose: 0.38 mg/kg/injection, schedule: Q01DX010 (sc), vehicle: saline",112 % of control
same,T/C,"endpoint: mean survival time, dose: 0.63 mg/kg/injection, schedule: Q03DX003 (ip), vehicle: saline",122 % of control
same,T/C,"endpoint: mean survival time, dose: 0.75 mg/kg/injection, schedule: Q01DX010 (im), vehicle: saline",120 % of control
same,T/C,"endpoint: mean survival time, dose: 0.75 mg/kg/injection, schedule: Q#A X020 (ip), vehicle: saline",211 % of control
same,T/C,"endpoint: mean survival time, dose: 1.25 mg/kg/injection, schedule: Q03DX003 (ip), vehicle: saline",122 % of control
same,T/C,"endpoint: mean survival time, dose: 1.5 mg/kg/injection, schedule: Q01DX010 (ip), vehicle: saline",177 % of control
same,T/C,"endpoint: mean survival time, dose: 1.5 mg/kg/injection, schedule: Q#A X020 (ip), vehicle: saline",217 % of control
same,T/C,"endpoint: mean survival time, dose: 1.56 mg/kg/injection, schedule: Q01DX010 (oral), vehicle: saline",106 % of control
same,T/C,"endpoint: mean survival time, dose: 2.5 mg/kg/injection, schedule: Q01DX001 (ip), vehicle: saline",120 % of control
same,T/C,"endpoint: mean survival time, dose: 2.5 mg/kg/injection, schedule: Q03DX004 (ip), vehicle: saline",157 % of control
same,T/C,"endpoint: mean survival time, dose: 2.5 mg/kg/injection, schedule: Q07DX002 (ip), vehicle: saline",111 % of control
same,T/C,"endpoint: mean survival time, dose: 3.0 mg/kg/injection, schedule: Q01DX006 (iv), vehicle: saline",124 % of control
same,T/C,"endpoint: mean survival time, dose: 3.0 mg/kg/injection, schedule: Q01DX010 (im), vehicle: saline",159 % of control and 166 % of control
same,T/C,"endpoint: mean survival time, dose: 3.0 mg/kg/injection, schedule: Q01DX010 (ip), vehicle: saline",166 % of control
same,T/C,"endpoint: mean survival time, dose: 3.0 mg/kg/injection, schedule: Q01DX010 (sc), vehicle: saline",152 % of control and 162 % of control
same,T/C,"endpoint: mean survival time, dose: 3.12 mg/kg/injection, schedule: Q01DX015 (ip), vehicle: saline",195 % of control
same,T/C,"endpoint: mean survival time, dose: 3.13 mg/kg/injection, schedule: Q01DX010 (oral), vehicle: saline",112 % of control
same,T/C,"endpoint: mean survival time, dose: 4.0 mg/kg/injection, schedule: Q01DX009 (ip), vehicle: saline",173 % of control
same,T/C,"endpoint: mean survival time, dose: 5.0 mg/kg/injection, schedule: Q01DX001 (ip), vehicle: saline",122 % of control
same,T/C,"endpoint: mean survival time, dose: 5.0 mg/kg/injection, schedule: Q03DX004 (ip), vehicle: saline",157 % of control
same,T/C,"endpoint: mean survival time, dose: 6.0 mg/kg/injection, schedule: Q01DX010 (im), vehicle: saline",176 % of control
same,T/C,"endpoint: mean survival time, dose: 6.0 mg/kg/injection, schedule: Q01DX010 (ip), vehicle: saline",183 % of control
same,T/C,"endpoint: mean survival time, dose: 6.0 mg/kg/injection, schedule: Q01DX010 (sc), vehicle: saline",178 % of control
same,T/C,"endpoint: mean survival time, dose: 6.25 mg/kg/injection, schedule: Q01DX010 (oral), vehicle: saline",118 % of control
same,T/C,"endpoint: mean survival time, dose: 8.0 mg/kg/injection, schedule: Q01DX009 (ip), vehicle: saline",216 % of control
same,T/C,"endpoint: mean survival time, dose: 10.0 mg/kg/injection, schedule: Q01DX001 (ip), vehicle: saline",124 % of control
same,T/C,"endpoint: mean survival time, dose: 10.0 mg/kg/injection, schedule: Q03DX004 (ip), vehicle: saline",160 % of control
same,T/C,"endpoint: mean survival time, dose: 10.0 mg/kg/injection, schedule: Q03DX Z (ip), vehicle: saline",166 % of control
same,T/C,"endpoint: mean survival time, dose: 12.0 mg/kg/injection, schedule: Q01DX006 (iv), vehicle: saline",157 % of control
same,T/C,"endpoint: mean survival time, dose: 12.0 mg/kg/injection, schedule: Q01DX010 (im), vehicle: saline",217 % of control
same,T/C,"endpoint: mean survival time, dose: 12.0 mg/kg/injection, schedule: Q01DX010 (ip), vehicle: saline",197 % of control
same,T/C,"endpoint: mean survival time, dose: 12.0 mg/kg/injection, schedule: Q01DX010 (sc), vehicle: saline",203 % of control
same,T/C,"endpoint: mean survival time, dose: 12.0 mg/kg/injection, schedule: Q#A X020 (ip), vehicle: saline",201 % of control
same,T/C,"endpoint: mean survival time, dose: 12.5 mg/kg/injection, schedule: Q01DX010 (oral), vehicle: saline",153 % of control
same,T/C,"endpoint: mean survival time, dose: 20.0 mg/kg/injection, schedule: Q01DX001 (ip), vehicle: saline",118 % of control
same,T/C,"endpoint: mean survival time, dose: 20.0 mg/kg/injection, schedule: Q03DX Z (ip), vehicle: saline",174 % of control
same,T/C,"endpoint: mean survival time, dose: 24.0 mg/kg/injection, schedule: Q01DX006 (iv), vehicle: saline",160 % of control and 191 % of control
same,T/C,"endpoint: mean survival time, dose: 24.0 mg/kg/injection, schedule: Q01DX010 (ip), vehicle: saline",191 % of control
same,T/C,"endpoint: mean survival time, dose: 24.0 mg/kg/injection, schedule: Q#A X020 (ip), vehicle: saline",120 % of control
same,T/C,"endpoint: mean survival time, dose: 25.0 mg/kg/injection, schedule: Q01DX005 (ip), vehicle: saline",150 % of control and 160 % of control
same,T/C,"endpoint: mean survival time, dose: 25.0 mg/kg/injection, schedule: Q01DX010 (oral), vehicle: saline",174 % of control
same,T/C,"endpoint: mean survival time, dose: 40.0 mg/kg/injection, schedule: Q01DX001 (ip), vehicle: saline",122 % of control
same,T/C,"endpoint: mean survival time, dose: 40.0 mg/kg/injection, schedule: Q01DX005 (ip), vehicle: saline",174 % of control
same,T/C,"endpoint: mean survival time, dose: 40.0 mg/kg/injection, schedule: Q03DX Z (ip), vehicle: saline",198 % of control
same,T/C,"endpoint: mean survival time, dose: 48.0 mg/kg/injection, schedule: Q01DX006 (iv), vehicle: saline",180 % of control
same,T/C,"endpoint: mean survival time, dose: 48.0 mg/kg/injection, schedule: Q01DX010 (ip), vehicle: saline",116 % of control
same,T/C,"endpoint: mean survival time, dose: 48.0 mg/kg/injection, schedule: Q#A X020 (ip), vehicle: saline",101 % of control
same,T/C,"endpoint: mean survival time, dose: 50.0 mg/kg/injection, schedule: Q01DX001 (ip), vehicle: saline",124 % of control
same,T/C,"endpoint: mean survival time, dose: 50.0 mg/kg/injection, schedule: Q01DX010 (oral), vehicle: saline",186 % of control
same,T/C,"endpoint: mean survival time, dose: 64.0 mg/kg/injection, schedule: Q01DX009 (oral), vehicle: saline",168 % of control
same,T/C,"endpoint: mean survival time, dose: 80.0 mg/kg/injection, schedule: Q01DX005 (ip), vehicle: saline",168 % of control
same,T/C,"endpoint: mean survival time, dose: 80.0 mg/kg/injection, schedule: Q03DX004 (ip), vehicle: saline",180 % of control
same,T/C,"endpoint: mean survival time, dose: 80.0 mg/kg/injection, schedule: Q03DX Z (ip), vehicle: saline",201 % of control
same,T/C,"endpoint: mean survival time, dose: 96.0 mg/kg/injection, schedule: Q01DX006 (iv), vehicle: saline",177 % of control
same,T/C,"endpoint: mean survival time, dose: 96.0 mg/kg/injection, schedule: Q01DX010 (ip), vehicle: saline",112 % of control
same,T/C,"endpoint: mean survival time, dose: 96.0 mg/kg/injection, schedule: Q#A X020 (ip), vehicle: saline",103 % of control
same,T/C,"endpoint: mean survival time, dose: 100.0 mg/kg/injection, schedule: Q01DX001 (ip), vehicle: saline",118 % of control
same,T/C,"endpoint: mean survival time, dose: 100.0 mg/kg/injection, schedule: Q01DX009 (ip), vehicle: saline",183 % of control
same,T/C,"endpoint: mean survival time, dose: 100.0 mg/kg/injection, schedule: Q01DX010 (oral), vehicle: saline",157 % of control
same,T/C,"endpoint: mean survival time, dose: 128.0 mg/kg/injection, schedule: Q01DX001 (oral), vehicle: saline",110 % of control
same,T/C,"endpoint: mean survival time, dose: 128.0 mg/kg/injection, schedule: Q01DX009 (oral), vehicle: saline",181 % of control
same,T/C,"endpoint: mean survival time, dose: 160.0 mg/kg/injection, schedule: Q01DX005 (ip), vehicle: saline",168 % of control
same,T/C,"endpoint: mean survival time, dose: 160.0 mg/kg/injection, schedule: Q03DX004 (ip), vehicle: saline",198 % of control
same,T/C,"endpoint: mean survival time, dose: 160.0 mg/kg/injection, schedule: Q07DX002 (ip), vehicle: saline",154 % of control
same,T/C,"endpoint: mean survival time, dose: 160.0 mg/kg/injection, schedule: Q07DX Z (ip), vehicle: saline",152 % of control
same,T/C,"endpoint: mean survival time, dose: 192.0 mg/kg/injection, schedule: Q01DX006 (iv), vehicle: saline",95 % of control
same,T/C,"endpoint: mean survival time, dose: 192.0 mg/kg/injection, schedule: Q01DX010 (im), vehicle: saline",110 % of control
same,T/C,"endpoint: mean survival time, dose: 192.0 mg/kg/injection, schedule: Q01DX010 (ip), vehicle: saline",108 % of control
same,T/C,"endpoint: mean survival time, dose: 192.0 mg/kg/injection, schedule: Q01DX010 (sc), vehicle: saline",119 % of control
same,T/C,"endpoint: mean survival time, dose: 200.0 mg/kg/injection, schedule: Q01DX001 (ip), vehicle: saline",119 % of control
same,T/C,"endpoint: mean survival time, dose: 200.0 mg/kg/injection, schedule: Q01DX009 (ip), vehicle: saline",93 % of control
same,T/C,"endpoint: mean survival time, dose: 256.0 mg/kg/injection, schedule: Q01DX001 (oral), vehicle: saline",117 % of control
same,T/C,"endpoint: mean survival time, dose: 320.0 mg/kg/injection, schedule: Q07DX002 (ip), vehicle: saline",182 % of control
same,T/C,"endpoint: median survival time, dose: 2.0 mg/kg/injection, schedule: Q01DX009 (ip), vehicle: saline with Tween-80",168 % of control
same,T/C,"endpoint: median survival time, dose: 4.0 mg/kg/injection, schedule: Q01DX009 (ip), vehicle: saline with Tween-80",175 % of control
same,T/C,"endpoint: median survival time, dose: 4.0 mg/kg/injection, schedule: Q01DX009 (ip), vehicle: saline",160 % of control and 175 % of control
same,T/C,"endpoint: median survival time, dose: 8.0 mg/kg/injection, schedule: Q01DX009 (ip), vehicle: saline with Tween-80",183 % of control
same,T/C,"endpoint: median survival time, dose: 8.0 mg/kg/injection, schedule: Q01DX009 (ip), vehicle: saline",170 % of control and 187 % of control
same,T/C,"endpoint: median survival time, dose: 16.0 mg/kg/injection, schedule: Q01DX009 (ip), vehicle: saline with Tween-80",186 % of control
same,T/C,"endpoint: median survival time, dose: 16.0 mg/kg/injection, schedule: Q01DX009 (ip), vehicle: saline",190 % of control
same,T/C,"endpoint: median survival time, dose: 32.0 mg/kg/injection, schedule: Q01DX009 (ip), vehicle: saline with Tween-80",202 % of control
same,T/C,"endpoint: median survival time, dose: 32.0 mg/kg/injection, schedule: Q01DX009 (ip), vehicle: saline",160 % of control
